Earlier results on 62 compounds are cited in the CATMoS acute toxicity set (Mansouri et al. 2021).

SMILES strings stand for the structures.

This data set is described as follows: rat acute oral toxicity. Conditions: in vivo.
Turning to `CN(c1ccc(Cl)cc1Br)c1c([N+](=O)[O-])cc([N+](=O)[O-])cc1C(F)(F)F`, the LD50 was 4.5 mg/kg.
As to `C/N=C/Nc1ccc(Cl)cc1C`, the LD50 was 264 mg/kg.
Take `c1ccc2cc(Nc3ccc(Nc4ccc5ccccc5c4)cc3)ccc2c1`: the LD50 is 4500 mg/kg.
In the case of `CCSCCOP(=S)(OC)OC`, the LD50 was 75 mg/kg.
In the case of `CCOP(=S)(OCC)Oc1ccc([N+](=O)[O-])cc1Cl`, the LD50 is 10 mg/kg.
As for `CCSN(C)C(=O)Oc1cccc2c1OC(C)(C)C2`, the 50% lethal dose (LD50) is 25 mg/kg.
With `Cc1ncc2c(c1O)CSSC2`, the median lethal dose (LD50) was 1110 mg/kg.
In the case of `CCB(CC)CC`, the LD50 was 235 mg/kg.
On to `OP(OCCCl)OCCCl`, for which the LD50 is 260 mg/kg.
In the case of `OCCS`, the 50% lethal dose (LD50) is 244 mg/kg.
With `CC(C)(C)NC[C@H](O)COc1nsnc1N1CCOCC1`, the LD50 was 1030 mg/kg.
As for `[O-][N+](=Nc1ccccc1)c1ccccc1`, the LD50 is 620 mg/kg.
In the case of `CCOC(=O)N1CCC=C(C=NOC)C1`, the LD50 was 200 mg/kg.
As for `CCSP(SCC)SCC`, the LD50 is 355 mg/kg.
As to `c1cc2ccc3cccc4ccc(c1)c2c34`, the LD50 was 2700 mg/kg.
Regarding `CC(C)(C#N)Nc1nc(Cl)nc(NC2CC2)n1`, the LD50 was 290 mg/kg.
As for `CCCCCC(C)O` (configuration not stated), the 50% lethal dose (LD50) was 2580 mg/kg.
As for `CC1OCN=C(c2ccccc2)S1` (configuration not stated), the LD50 is 655 mg/kg.
For `O=S(=O)(Cl)CCCl`, the LD50 was 240 mg/kg.
For the compound `COP(=O)(OC)SC(C)C`, the LD50 is 108 mg/kg.
For `Nc1c(Cl)c(Cl)c2[nH]c(C(F)(F)F)nc2c1Cl`, the LD50 is 23 mg/kg.
With `COP(=S)(OC)SC1CCSc2ccccc21` (configuration not stated), the LD50 was 5 mg/kg.
As for `COc1ccccc1N1CCN(CC=Cc2ccc3c(c2)CCC(=O)N3)CC1`, the LD50 was 500 mg/kg.
As for `CC1CC=NN1C(=N)N=C(N)N` (configuration not stated), the LD50 is 4350 mg/kg.
For the compound `CCC(=O)OC1(c2ccccc2)CCN(C)C1C` (configuration not stated), the LD50 was 253 mg/kg.
Consider `CNC(=O)N(C)N=O`, for which the LD50 was 280 mg/kg.
Consider `C[C@]12C=CC(=O)C=C1CC[C@@H]1[C@@H]2[C@@H](O)C[C@@]2(C)[C@H]1CC[C@]2(O)C(=O)COC(=O)CCCc1ccc(N(CCCl)CCCl)cc1`, for which the LD50 is 530 mg/kg.
For `CNCCCC1c2ccccc2CN(C)c2ccccc21` (configuration not stated), the LD50 is 331 mg/kg.
In the case of `CCCN(CCC)c1c([N+](=O)[O-])cc(C(F)(F)F)c(N)c1[N+](=O)[O-]`, the LD50 is 15400 mg/kg.
Turning to `c1ccc(P(c2ccccc2)c2ccccc2)cc1`, the LD50 is 700 mg/kg.
`CCN(CC)CCOC(=O)c1cccnc1`: the LD50 was 8400 mg/kg.
With `CC(C)=CCl`, the LD50 is 4460 mg/kg.
As to `ClCC(Cl)(Cl)CCl`, the LD50 was 6300 mg/kg.
`CCOC(=O)Nc1cccc2c1CN(C)CC2c1ccc(Cl)cc1` (configuration not stated): the LD50 was 665 mg/kg.
Turning to `O=C(O)C(Cl)CCl` (configuration not stated), the LD50 is 289 mg/kg.
Take `O=[N+]([O-])c1cc(Br)c2nc(C(F)(F)F)[nH]c2c1`: the LD50 is 14.5 mg/kg.
For `CC(=O)CC(C)(C)N(C)N=O`, the LD50 is 2100 mg/kg.
Consider `CC1(NC(N)=O)CCCC1`, for which the median lethal dose (LD50) was 1200 mg/kg.
Take `O=C(OC1CC2CCC(C1)[N+]21CCCC1)C(O)(c1ccccc1)c1ccccc1` (configuration not stated): the LD50 is 1500 mg/kg.
Consider `CCOP(=S)(OCC)SC1OCCOC1SP(=S)(OCC)OCC` (configuration not stated), for which the LD50 was 20 mg/kg.
Take `CCCCc1c(OC(=O)c2ccc3c(c2)OCO3)n(-c2ccccc2)n(-c2ccccc2)c1=O`: the LD50 is 1370 mg/kg.
With `c1ccc(Nc2ccc(Nc3ccccc3)cc2)cc1`, the median lethal dose (LD50) is 2370 mg/kg.
For the compound `CCOC(C1=NCC(C)(C)N1)c1ccc(Cl)c(Cl)c1` (configuration not stated), the LD50 is 110 mg/kg.
Regarding `CCCCCC#CC(=O)OC`, the LD50 was 1530 mg/kg.
For the compound `Cn1c2c(c3cc(N)ccc31)CCCC2`, the LD50 was 229 mg/kg.
Turning to `CCN(CCCCOC(=O)c1ccc(OC)c(OC)c1)C(C)Cc1ccc(OC)cc1` (configuration not stated), the LD50 is 1540 mg/kg.
In the case of `CCP(c1ccccc1)c1ccccc1`, the median lethal dose (LD50) is 500 mg/kg.
For the compound `CCCN(CCC)C(=O)C(CCC(=O)OCCCOC(=O)Cc1c(C)n(C(=O)c2ccc(Cl)cc2)c2ccc(OC)cc12)NC(=O)c1ccccc1` (configuration not stated), the LD50 was 605 mg/kg.
With `Nc1cc(Cl)ccc1O`, the LD50 was 690 mg/kg.
Regarding `Cc1c(Cl)cc(-c2ccc(O)nn2)cc1Cl`, the LD50 was 12000 mg/kg.
Take `CC(=O)OC[C@H]1O[C@@H](n2ncc(=O)[nH]c2=O)[C@H](OC(C)=O)[C@@H]1OC(C)=O`: the LD50 is 12000 mg/kg.
On to `OC(CCl)CNCCNCC(O)CCl` (configuration not stated), for which the 50% lethal dose (LD50) was 1000 mg/kg.
`CN1CCC(OC(=O)COc2ccc(Cc3ccc(Cl)cc3)cc2)CC1`: the 50% lethal dose (LD50) was 1900 mg/kg.
Turning to `CC(C)c1cccc(C(C)C)c1N=C=O`, the LD50 is 1410 mg/kg.
On to `C1CS1`, for which the 50% lethal dose (LD50) was 178 mg/kg.
For `Cc1cccs1`, the LD50 is 3200 mg/kg.
In the case of `CCCCN(CCO)CCO`, the LD50 is 4250 mg/kg.
Regarding `COc1cc2[nH]c3c(c2cc1OC)CCN1CC2C(C)OC=C(C(=O)OCCN(C)C)C2CC31` (configuration not stated), the LD50 is 2350 mg/kg.
As for `CCCCCCC(C)I` (configuration not stated), the LD50 was 8200 mg/kg.
Regarding `OC(CCl)CNc1ccccc1NCC(O)CCl` (configuration not stated), the median lethal dose (LD50) is 900 mg/kg.
As for `Cc1ccc(Cl)cc1Cl`, the LD50 was 2400 mg/kg.
On to `CN1CCN(C[C@H]2C(=O)Nc3ccccc3S[C@H]2c2ccccc2)CC1`, for which the LD50 was 830 mg/kg.
